Reference: patent US20090275557A1, “Novel Composition for Treatment of Diseases Related to Activated Lymphocytes” (Immune Control, Inc., priority 2008, published 2009)

Tested on: bovine type 2 collagen immunized rats
Experiment: Collagen-induced arthritis assay, IP injection protocol, ankle diameter
Assay type: in vivo, rat
Conditions: IP injection 10 mg/kg once per day, study days 1-3; observed on study days 2-4
Method: Female Lewis rats (CR) weighing between 125-200 g were immunized with bovine type 2 collagen, 2 mg/ml in a 1:1 solution of 0.01 N acetic acid and Freund's incomplete adjuvant (“FIA”). A 0.1 ml portion of the collagen solution was injected id (intradermally) at three sites on the rat. Rats were immunized with the collagen solution on days 1 and 6 of the study. […] On day 9 (study day “0”), baseline ankle diameters were measured. On days 10-15 (study days 1-6), the rats were then treated, via oral gavage, with either 1, 5, or 25 mg/kg of one of ICI-1259 or ICI-1260, prepared as described below. Ankle diameter measurements were measured on each of days 10-16.
Compounds ICI-1259, ICI-1260, ICI-1505, and ICI-1506 were administered via IP injection to treat collagent-induced arthritis in a variation of the experiments described above. Under the protocol of the IP injection experiments, animal were immunized with Bovine Type 2 collagen as previously described. […] On day 9 (study day “0”), baseline ankle diameters were measured. On days 10-12 (study days 1-3), the rats were then treated once per day, via IP injection, with one of ICI-1259, ICI-1260, ICI-1505, or ICI-1506 at 10 mg/kg. Ankle diameter in the immunized rodents was measured on each of days 10-13 as well as on day 14. […] See FIG. 18 (ICI-1259, ICI-1260, and ICI-1505) and FIG. 19 (ICI-1506).
In a separate study, using the IP injection protocol described above, ICI-1259 and 1260 were each dosed at 2 mg/kg and 0.4 mg/kg.

| SMILES | reduction in ankle swelling (ankle diameter) |
| --- | --- |
| CN(C)CCCN1CCC(CCCN2c3ccccc3Sc3ccc(C(F)(F)F)cc32)CC1 [ICI-1505, N,N-dimethyl-3-(4-(3-(2-(trifluoromethyl)-10H-phenothiazin-10-yl)propyl)piperidin-1-yl)propan-1-amine] | statistically significant results were observed |
| FC(F)(F)c1ccc2c(c1)N(CCCC1CCN(CCCN3CCCCC3)CC1)c1ccccc1S2 [ICI-1506, 10-(3-(1-(3-(piperidin-1-yl)propyl)piperidin-4-yl)propyl)-2-(trifluoromethyl)-10H-phenothiazine] | statistically significant results were observed |
